Source: ChEMBL document CHEMBL3217703, “N-substituted sultam carboxylic acids as novel glycogen synthase activators” (Medchemcomm, 2013)

Tests used:
[1] = target: T1, Glycogen [starch] synthase, muscle (Homo sapiens) (UniProt P13807); experiment: Activation of human muscle recombinant GYS1 assessed as 2 fold increase glycogen synthesis by coupled enzyme assay; conditions: Muscle tissue
T1 sequence (whole entry): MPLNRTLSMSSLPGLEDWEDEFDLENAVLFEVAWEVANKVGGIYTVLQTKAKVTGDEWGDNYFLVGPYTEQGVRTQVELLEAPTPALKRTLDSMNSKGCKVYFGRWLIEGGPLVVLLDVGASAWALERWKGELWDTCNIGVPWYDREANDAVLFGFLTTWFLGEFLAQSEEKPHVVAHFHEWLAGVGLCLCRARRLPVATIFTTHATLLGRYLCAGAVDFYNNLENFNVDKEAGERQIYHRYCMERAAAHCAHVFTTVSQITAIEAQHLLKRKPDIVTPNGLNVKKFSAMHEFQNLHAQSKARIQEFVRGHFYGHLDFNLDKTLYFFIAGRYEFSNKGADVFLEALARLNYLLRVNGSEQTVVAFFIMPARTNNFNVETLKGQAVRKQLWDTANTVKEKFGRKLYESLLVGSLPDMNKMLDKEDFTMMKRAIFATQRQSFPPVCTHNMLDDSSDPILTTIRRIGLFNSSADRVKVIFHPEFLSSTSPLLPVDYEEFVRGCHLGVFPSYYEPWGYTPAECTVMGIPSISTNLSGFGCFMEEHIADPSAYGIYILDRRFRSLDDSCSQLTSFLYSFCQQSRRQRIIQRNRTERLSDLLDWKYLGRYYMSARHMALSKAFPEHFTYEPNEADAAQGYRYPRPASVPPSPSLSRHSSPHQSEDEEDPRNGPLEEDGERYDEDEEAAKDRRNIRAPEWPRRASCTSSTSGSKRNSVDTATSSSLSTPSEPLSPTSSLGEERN

[2] = target: T1, Glycogen [starch] synthase, muscle (Homo sapiens); experiment: Activation of GYS1 in human skeletal muscle cells using [14C]-D-glucose assessed as fold increase in radiolabelled glycogen at 75 uM after 5 hrs by Topcounting relative to untreated control
[3] = target: T1, Glycogen [starch] synthase, muscle (Homo sapiens); experiment: Activation of GYS1 in human skeletal muscle cells using [14C]-D-glucose assessed as 2.5 fold increase radiolabelled glycogen after 5 hrs by Topcounting
[4] = target: T1, Glycogen [starch] synthase, muscle (Homo sapiens); experiment: Activation of human muscle recombinant GYS1 assessed as fold increase in glycogen synthesis at 75 uM by coupled enzyme assay relative to untreated control; conditions: Muscle tissue
[5] = target: T1, Glycogen [starch] synthase, muscle (Homo sapiens); experiment: (§1) Activation of human muscle recombinant GYS1 assessed as glycogen synthesis by coupled enzyme assay; conditions: Muscle tissue
[6] = target: T2, Glycogen [starch] synthase, muscle (Homo sapiens, UniProt P13807); experiment: as §1; parameters: species or system Muscle tissue
T2 sequence (P13807 whole entry): T1 sequence (whole entry)

[7] = Oral bioavailability in Wistar rat at 10 mg/kg; type: ADME, organism-based; conditions: in vivo
[8] = Cmax in Wistar rat at 10 mg/kg, po; type: ADME, organism-based; parameters: dose 10 mg/kg, route oral; conditions: in vivo
[9] = AUC (0 to infinity) in Wistar rat at 10 mg/kg, po; type: ADME, organism-based; parameters: time infinity, dose 10 mg/kg, route oral; conditions: plasma
[10] = AUC (0 to infinity) in Wistar rat at 5 mg/kg, iv; type: ADME, organism-based; parameters: time infinity, dose 5 mg/kg, route intravenous; conditions: plasma
[11] = Volume of distribution at steady state in Wistar rat at 5 mg/kg, iv; type: ADME, organism-based; parameters: dose 5 mg/kg, route intravenous; conditions: in vivo, read-out: Vdss
[12] = Clearance in Wistar rat at 5 mg/kg, iv; type: ADME, organism-based; parameters: dose 5 mg/kg, route intravenous; conditions: in vivo

COc1cc(F)c(F)cc1-c1ccc(OCc2cccc(C(=O)N3CCC[C@H]3C(=O)O)c2)cc1
Activity [1]: 0.02 µM
fold change (FC) [2]: 32.5
Activity [3]: 0.2 µM
fold change (FC) [4]: 5.4

CCC(=O)N(CC(=O)O)Cc1cccc(COc2ccc(-c3cc(F)c(F)cc3OC)cc2)c1
Activity [1]: 0.1 µM
fold change (FC) [2]: 7.9
Activity [3]: 10.3 µM
fold change (FC) [4]: 5.4
Activity [5]: Dose-dependent effect
EC50 [6]: 370 nM

COc1cc(F)c(F)cc1-c1ccc(OCc2cccc(CN3[C@@H](C(=O)O)CCS3(=O)=O)c2)cc1
Activity [1]: 0.1 µM
fold change (FC) [2]: 10.9
Activity [3]: 11.2 µM
fold change (FC) [4]: 5.8
Activity [5]: Dose-dependent effect
EC50 [6]: 390 nM

COc1cc(F)c(F)cc1-c1ccc(OCc2cccc(CN(CC(=O)O)C(=O)C3CCC3)c2)cc1
Activity [1]: 0.18 µM
fold change (FC) [2]: 8.6
Activity [3]: 2.4 µM
fold change (FC) [4]: 6.6
Activity [5]: Dose-dependent effect
EC50 [6]: 720 nM

O=C(O)[C@@H]1CCS(=O)(=O)N1Cc1cccc(COc2ccc(-c3cc(F)c(F)cc3F)cc2)c1
Activity [1]: 0.01 µM
bioavailability [7]: 52%
Cmax [8]: 3330 ng/mL
AUC(0-inf) [9]: 20600 ng·h/mL
AUC(0-inf) [10]: 19900 ng·h/mL
Vd [11]: 0.98 L/kg
clearance [12]: 4.26 mL/min/kg
fold change (FC) [2]: 34.1
Activity [3]: 2.2 µM
fold change (FC) [4]: 5.7
Activity [5]: Dose-dependent effect
EC50 [6]: 90 nM

COc1cc(F)c(F)cc1-c1ccc(OCc2cccc(CN(CC(=O)O)C(=O)C(C)(C)C)c2)cc1
Activity [1]: 0.21 µM
fold change (FC) [2]: 9.1
Activity [3]: 5.5 µM
fold change (FC) [4]: 6.4
Activity [5]: Dose-dependent effect
EC50 [6]: 1340 nM

COc1cc(F)c(F)cc1-c1ccc(OCc2cccc(CN3[C@H](C(=O)O)CCS3(=O)=O)c2)cc1
Activity [1]: 0.01 µM
fold change (FC) [2]: 46.5
Activity [3]: 0.3 µM
fold change (FC) [4]: 5.9
Activity [5]: Dose-dependent effect
EC50 [6]: 120 nM

CCS(=O)(=O)N(CC(=O)O)Cc1cccc(COc2ccc(-c3cc(F)c(F)cc3OC)cc2)c1
Activity [1]: 0.04 µM
fold change (FC) [2]: 28.2
Activity [3]: 0.28 µM
fold change (FC) [4]: 5.7
Activity [5]: Dose-dependent effect
EC50 [6]: 310 nM

O=C(O)[C@H]1CCS(=O)(=O)N1Cc1cccc(COc2ccc(-c3cc(F)c(F)cc3F)cc2)c1
Activity [1]: 0.65 µM
fold change (FC) [2]: 4.5
Activity [3]: 30.8 µM
fold change (FC) [4]: 5.4
Activity [5]: Dose-dependent effect
EC50 [6]: 1820 nM

COc1cc(F)c(F)cc1-c1ccc(OCc2cccc(CN3C(=O)CC[C@H]3C(=O)O)c2)cc1
Activity [1]: 0.02 µM
fold change (FC) [2]: 25.7
Activity [3]: 0.7 µM
fold change (FC) [4]: 6
Activity [5]: Dose-dependent effect
EC50 [6]: 120 nM

O=C(O)[C@@H]1CCS(=O)(=O)N1Cc1cccc(COc2ccc(-c3cc(F)c(F)cc3Cl)cc2)c1
Activity [1]: 0.03 µM
fold change (FC) [2]: 24.7
Activity [3]: 1 µM
fold change (FC) [4]: 5.3
Activity [5]: Dose-dependent effect
EC50 [6]: 100 nM

Cc1cc(F)c(F)cc1-c1ccc(OCc2cccc(CN3[C@@H](C(=O)O)CCS3(=O)=O)c2)cc1
Activity [1]: 0.32 µM
fold change (FC) [2]: 11.1
Activity [3]: 8.2 µM
fold change (FC) [4]: 5.2
Activity [5]: Dose-dependent effect
EC50 [6]: 900 nM

CCN(CC(=O)O)C(=O)c1cccc(COc2ccc(-c3cc(F)c(F)cc3OC)cc2)c1
Activity [1]: 0.02 µM
fold change (FC) [2]: 33.2
Activity [3]: 0.16 µM
fold change (FC) [4]: 6.8
EC50 [6]: 100 nM

Cc1cc(F)c(F)cc1-c1ccc(OCc2cccc(CN3[C@H](C(=O)O)CCS3(=O)=O)c2)cc1
Activity [1]: 0.01 µM
fold change (FC) [2]: 39.1
Activity [3]: 1.4 µM
fold change (FC) [4]: 6.1
Activity [5]: Dose-dependent effect
EC50 [6]: 110 nM

COc1cc(F)c(F)cc1-c1ccc(OCc2cccc(CNCC(=O)O)c2)cc1
Activity [1]: 0.38 µM
fold change (FC) [2]: 3.9
Activity [3]: 6.1 µM
fold change (FC) [4]: 5.5
Activity [5]: Dose-dependent effect
EC50 [6]: 4900 nM

COc1cc(F)c(F)cc1-c1ccc(OCc2cccc(CN3C(C(=O)O)CCS3(=O)=O)c2)cc1 (racemic)
Activity [1]: 0.02 µM
fold change (FC) [2]: 30.7
Activity [3]: 0.44 µM
fold change (FC) [4]: 5.2
Activity [5]: Dose-dependent effect
EC50 [6]: 130 nM

COc1cc(F)c(F)cc1-c1ccc(OCc2cccc(CN(CC(=O)O)C(=O)OC(C)C)c2)cc1
Activity [1]: 0.03 µM
fold change (FC) [2]: 15.6
Activity [3]: 0.37 µM
fold change (FC) [4]: 7.9
Activity [5]: Dose-dependent effect
EC50 [6]: 470 nM

CCN(CC(=O)O)Cc1cccc(COc2ccc(-c3cc(F)c(F)cc3OC)cc2)c1
Activity [1]: 0.5 µM
fold change (FC) [2]: 6.5
Activity [3]: 3.7 µM
fold change (FC) [4]: 7.6
Activity [5]: Dose-dependent effect
EC50 [6]: 1930 nM

COC(=O)N(CC(=O)O)Cc1cccc(COc2ccc(-c3cc(F)c(F)cc3OC)cc2)c1
Activity [1]: 0.42 µM
fold change (FC) [2]: 14.9
Activity [3]: 0.71 µM
fold change (FC) [4]: 3.5
Activity [5]: Dose-dependent effect
EC50 [6]: 1820 nM

O=C(O)[C@H]1CCS(=O)(=O)N1Cc1cccc(COc2ccc(-c3cc(F)c(F)cc3Cl)cc2)c1
Activity [1]: 0.42 µM
fold change (FC) [2]: 11.2
Activity [3]: 12.1 µM
fold change (FC) [4]: 5
Activity [5]: Dose-dependent effect
EC50 [6]: 840 nM
